Results as given in patent publication US12173306B2, “Codon-optimized reduced-size ATP7A CDNA and uses for treatment of copper transport disorders” (The United States of America, as represented by the …, priority 2015, dated 2024).

System: C57BL/6-Atp7a^mo-br mice (mo-br mice)
Assay: Survival in a mouse model of Menkes disease (mo-br mice)
Format: in vivo
Conditions: single treatments, FIG. 5
Source text: FIG. 5 is a graph showing survival of mo-br mice treated with rAAV9-co-rsATP7A (AAV9) and copper histidinate, untreated (UT), treated with AAV9co alone, or treated with copper histidinate alone.
FIG. 6 is a graph showing survival to weaning (dark gray bars) or prolonged survival (light gray bars) in untreated (UT) mice, mice treated with AAV5-rsATP7A and copper histidinate (AAV5+Cu), AAVrh10-rsATP7A and copper histidinate (AAVrh10+copper), AAV9-rsATP7A and copper (AAV9+Cu), and AAV9 co-rsATP7A and copper (AAV9co+Cu). rsATP7A is reduced-size ATP7A cDNA (native sequence (non-codon-optimized)).
The AAV9 co-rsATP7A described in Example 2 was administered to C57BL/6-Atp7a^mo-br mice (mo-br mice) by intracerebroventricular injection. The mice were injected bilaterally on day two of life with 1.6×10^9 vg in 5 μl of lactated Ringer's solution. Some of the mice were also treated with copper histidinate (15 μg) by subcutaneous injection during the first week of life (5 μg, d4-6). About 70% of the mice treated with combination AAV9 co-rsATP7A and copper histidinate survived at least 100 days (FIG. 5).
Different AAV serotypes were also tested for efficacy in mo-br mice.

copper histidinate
survival time (did not survive past): ≤ 28 days
